From the supplement of paper PMC11061612

Tests used:
Assay in all cases: combination Emax (second highest fraction inhibited in the dose matrix, 72 h); higher = more inhibition; extreme values may be limits of the assay
[1] = system: OVCAR-8 (Ovarian Carcinoma)
Outline: (§1)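 Cell lines grown in DMEM/F12 or RPMI with 10% FBS were plated in 1536-well plates and held 24 hours at 37°C, 5% CO2 before 72 hours of exposure to two-drug dose matrices, with DMSO typically at 0.2%. CellTiter-Glo 2.0 luminescence gave viability, which was converted to inhibition. Vehicle wells were set to 0 and blank wells to 1. Combination Emax is the second-highest inhibition in the matrix, and Bliss excess is the observed combination effect minus the expected EA + EB − EA·EB, where EA and EB are the single-agent effects.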

[2] = system: 639-V (Bladder Carcinoma)
Outline: as §1

[3] = system: HDLM-2 (Hodgkin's Lymphoma)
Outline: as §1

[4] = system: K5 (Thyroid Gland Carcinoma)
Outline: as §1

[5] = system: NCI-H747 (Colorectal Carcinoma)
Outline: as §1

[6] = system: MHH-PREB-1 (B-Cell Non-Hodgkin's Lymphoma)
Outline: as §1

[7] = system: NCI-H69 (Small Cell Lung Carcinoma)
Outline: as §1

[8] = system: RKO (Colorectal Carcinoma)
Outline: as §1

[9] = system: 8305C (Thyroid Gland Carcinoma)
Outline: as §1

[10] = system: NB14 (Neuroblastoma)
Outline: as §1

[11] = system: OC-314 (Ovarian Carcinoma)
Outline: as §1

[12] = system: HARA (Squamous Cell Lung Carcinoma)
Outline: as §1

[13] = system: SW626 (Colorectal Carcinoma)
Outline: as §1

[14] = system: CTB-1 (B-Cell Non-Hodgkin's Lymphoma)
Outline: as §1

[15] = system: SW1271 (Small Cell Lung Carcinoma)
Outline: as §1

[16] = system: LU-139 (Small Cell Lung Carcinoma)
Outline: as §1

[17] = system: SK-OV-3 (Ovarian Carcinoma)
Outline: as §1

[18] = system: CAL-54 (Kidney Carcinoma)
Outline: as §1

[19] = system: RPMI-6666 (Non-Cancerous)
Outline: as §1

[20] = system: LB771-HNC (Head and Neck Carcinoma)
Outline: as §1

Row | SMILES | combination Emax [1] | combination Emax [2] | combination Emax [3] | combination Emax [4] | combination Emax [5] | combination Emax [6] | combination Emax [7] | combination Emax [8] | combination Emax [9] | combination Emax [10] | combination Emax [11] | combination Emax [12] | combination Emax [13] | combination Emax [14] | combination Emax [15] | combination Emax [16] | combination Emax [17] | combination Emax [18] | combination Emax [19] | combination Emax [20]
1 | CC1(C)CCC(CN2CCN(c3ccc(C(=O)NS(=O)(=O)c4ccc(NCC5CCOCC5)c([N+](=O)[O-])c4)c(Oc4cnc5[nH]ccc5c4)c3)CC2)=C(c2ccc(Cl)cc2)C1 [Venetoclax] + CCN(CCO)CCCOc1ccc2c(Nc3cc(CC(=O)Nc4cccc(F)c4)[nH]n3)ncnc2c1 [AZD2811] (first compound max 1 µM, 7x7, partner max 1 µM) | 0.298 | 0.248 | 0.486 | 0.413 | 0.246 | 0.187 | 0.824 | 0.27 | 0.354 | 1 | 0.419 | 0.714 | 0.212 | 0.59 | 0.174 | 0.668 | 0.205 | 0.251 | 0.991 | 0.186
2 | Cc1c2c(nn1C)CSCc1cc(n(C)n1)CSc1cc(c3ccccc3c1)OCCCc1c(C(=O)O)n(C)c3c-2c(Cl)ccc13 [AZD5991] + C1CN(CCC1(C(=O)N[C@@H](CCO)C2=CC=C(C=C2)Cl)N)C3=NC=NC4=C3C=CN4 [Capivasertib] (first compound max 1 µM, 7x7, partner max 3 µM) | 0.169 | 0.177 | 1 | 0.478 | 0.392 | 0.101 | 0.405 | 0.292 | 0.319 | 0.89 | 0.297 | 0.58 | 0.25 | 0.42 | 0.216 | 0.268 | 0.36 | 0.351 | 0.7 | 0.587
3 | CN(CCO)CC[C@H](CSc1ccccc1)Nc1ccc(S(=O)(=O)NC(=O)c2ccc(N3CCC([C@@H](O)c4ccccc4-c4ccc(Cl)cc4)CC3)cc2)cc1S(=O)(=O)C(F)(F)F [AZD4320] + CCN(CCO)CCCOc1ccc2c(Nc3cc(CC(=O)Nc4cccc(F)c4)[nH]n3)ncnc2c1 [AZD2811] (first compound max 1 µM, 7x7, partner max 1 µM) | 0.651 | 0.303 | 0.924 | 0.33 | 0.414 | 0.2 | 0.896 | 0.194 | 0.386 | 1 | 0.804 | 0.63 | 0.825 | 0.503 | 0.234 | 0.914 | 0.178 | 0.163 | 0.982 | 0.191
4 | COc1cccc(OCCCN)c1-c1cc(Nc2cnc(C#N)cn2)n[nH]1 [Prexasertib] + CCc1c2c(nc3ccc(O)cc13)-c1cc3c(c(=O)n1C2)COC(=O)[C@]3(O)CC [SN-38] (first compound max 1 µM, 7x7, partner max 0.3 µM) | 1 | 1 | 0.676 | 0.628 | 0.724 | 0.96 | 0.896 | 0.909 | 0.823 | 1 | 1 | 0.966 | 0.819 | 0.934 | 0.769 | 0.899 | 0.853 | 0.855 | 0.976 | 0.647
5 | CN(CCO)CC[C@H](CSc1ccccc1)Nc1ccc(S(=O)(=O)NC(=O)c2ccc(N3CCC([C@@H](O)c4ccccc4-c4ccc(Cl)cc4)CC3)cc2)cc1S(=O)(=O)C(F)(F)F [AZD4320] + Cc1cc2ncnn2cc1Nc1ncc2c(n1)n(C1CCOCC1)c(=O)n2C [AZD7648] (first compound max 1 µM, 7x7, partner max 10 µM) | 0.14 | 0.208 | 0.895 | 0.392 | 0.387 | 0.119 | 0.882 | 0.21 | 0.699 | 0.966 | 0.22 | 0.244 | 0.577 | 0.317 | 0.216 | 0.937 | 0.305 | 0.372 | 0.898 | 0.138
6 | Cc1cc2ncnn2cc1Nc1ncc2c(n1)n(C1CCOCC1)c(=O)n2C [AZD7648] + C[C@@H]1COCCN1C2=NC(=NC(=C2)C3(CC3)[S@](=N)(=O)C)C4=C5C=CNC5=NC=C4 [AZD6738] (first compound max 10 µM, 7x7, partner max 10 µM) | 0.71 | 0.404 | 0.373 | 0.665 | 0.408 | 0.863 | 0.469 | 0.865 | 0.609 | 0.99 | 0.905 | 0.841 | 0.619 | 0.802 | 0.674 | 0.396 | 0.638 | 0.769 | 0.797 | 0.464
7 | CCN(CCO)CCCOc1ccc2c(Nc3cc(CC(=O)Nc4cccc(F)c4)[nH]n3)ncnc2c1 [AZD2811] + O=C(c1cc(Cc2n[nH]c(=O)c3ccccc23)ccc1F)N1CCN(C(=O)C2CC2)CC1 [Olaparib] (first compound max 1 µM, 7x7, partner max 10 µM) | 0.367 | 0.237 | 0.258 | 0.329 | 0.232 | 0.125 | 0.572 | 0.276 | 0.169 | 0.889 | 0.487 | 0.318 | 0.213 | 0.515 | 0.17 | 0.307 | 0.226 | 0.223 | 0.625 | 0.201
8 | COc1cccc(OCCCN)c1-c1cc(Nc2cnc(C#N)cn2)n[nH]1 [Prexasertib] + C=CCn1c(=O)c2cnc(Nc3ccc(N4CCN(C)CC4)cc3)nc2n1-c1cccc(C(C)(C)O)n1 [AZD1775] (first compound max 1 µM, partner max 1 µM) | 0.998 | 0.805 | 0.612 | 0.742 | 0.746 | 0.977 | 0.955 | 0.974 | 0.718 | 1 | 0.98 | 0.984 | 0.695 | 0.967 | 0.699 | 0.741 | 0.875 | 0.868 | 0.955 | 0.622
9 | Cc1cc2ncnn2cc1Nc1ncc2c(n1)n(C1CCOCC1)c(=O)n2C [AZD7648] + CCN(CCO)CCCOc1ccc2c(Nc3cc(CC(=O)Nc4cccc(F)c4)[nH]n3)ncnc2c1 [AZD2811] (first compound max 10 µM, 7x7, partner max 1 µM) | 0.311 | 0.278 | 0.345 | 0.571 | 0.306 | 0.343 | 0.743 | 0.409 | 0.451 | 0.837 | 0.477 | 0.364 | 0.25 | 0.697 | 0.376 | 0.397 | 0.367 | 0.443 | 0.584 | 0.251
10 | CC1(C)CCC(CN2CCN(c3ccc(C(=O)NS(=O)(=O)c4ccc(NCC5CCOCC5)c([N+](=O)[O-])c4)c(Oc4cnc5[nH]ccc5c4)c3)CC2)=C(c2ccc(Cl)cc2)C1 [Venetoclax] + C=CCn1c(=O)c2cnc(Nc3ccc(N4CCN(C)CC4)cc3)nc2n1-c1cccc(C(C)(C)O)n1 [AZD1775] (first compound max 1 µM, partner max 1 µM) | 0.798 | 0.428 | 0.88 | 0.523 | 0.479 | 0.846 | 0.425 | 0.88 | 0.639 | 1 | 0.933 | 0.899 | 0.647 | 0.897 | 0.552 | 0.831 | 0.74 | 0.795 | 0.996 | 0.518
11 | COc1cccc2c1C(=O)c1c(O)c3c(c(O)c1C2=O)C[C@@](O)(C(=O)CO)C[C@@H]3O[C@H]1C[C@H](N)[C@H](O)[C@H](C)O1 [Doxorubicin] + Cc1cc2ncnn2cc1Nc1ncc2c(n1)n(C1CCOCC1)c(=O)n2C [AZD7648] (first compound max 1 µM, 7x7, partner max 10 µM) | 0.923 | 0.98 | 0.545 | 0.823 | 0.743 | 0.974 | 0.747 | 0.91 | 0.876 | 0.887 | 1 | 0.808 | 0.419 | 0.911 | 0.768 | 0.905 | 0.638 | 0.802 | 0.971 | 0.193
12 | CN(C)CCCOc1ccc(-c2ccc3ncc4c(c3c2)n(C2CCOCC2)c(=O)n4C)cn1 [AZD0156] + CCN(CCO)CCCOc1ccc2c(Nc3cc(CC(=O)Nc4cccc(F)c4)[nH]n3)ncnc2c1 [AZD2811] (first compound max 1 µM, 7x7, partner max 1 µM) | 0.26 | 0.179 | 0.178 | 0.244 | 0.167 | 0.154 | 0.673 | 0.213 | 0.29 | 0.857 | 0.312 | 0.289 | 0.0884 | 0.501 | 0.201 | 0.279 | 0.138 | 0.134 | 0.551 | 0.142
